Reference: the NIST ThermoML archive (doi:10.1016/j.jct.2019.04.017)

Experiment: xn = mol fraction of the nth substance listed
Conditions: 96 kPa, Liquid; for electrical conductivity: Frequency=0.001 MHz, Alternating current cell with electrodes; for viscosity: Cone and plate viscometry

C1CCC2=NCCCN2CC1 [1,8-diaza-7-bicyclo[5.4.0]undecene] + OCC(O)CO
Conditions	electrical conductivity, 318.1 K [S/m]	electrical conductivity, 323.1 K [S/m]	electrical conductivity, 328.1 K [S/m]	viscosity, 328.1 K [mPa·s]
x1 = 0.0501	–	–	–	152.2
x1 = 0.0502	–	0.0955	0.11	–
x1 = 0.0909	–	–	–	175
x1 = 0.0914	–	0.118	0.132	–
x1 = 0.1	–	–	0.132	177.4
x1 = 0.1115	–	0.107	0.129	–
x1 = 0.1266	–	0.101	0.126	–
x1 = 0.1667	–	–	–	182.5
x1 = 0.1672	–	0.0882	0.103	–
x1 = 0.2	–	0.071	0.0859	184.3
x1 = 0.2153	–	–	–	186.8
x1 = 0.2306	–	–	–	177.8
x1 = 0.2504	–	0.0491	0.0585	–
x1 = 0.287	–	0.0358	0.0432	–
x1 = 0.3059	–	–	–	159.5
x1 = 0.3333	–	–	–	155
x1 = 0.3338	–	0.0233	0.0271	–
x1 = 0.4003	–	0.0107	0.0131	–
x1 = 0.4011	–	–	–	138.5
x1 = 0.5	–	0.00279	0.00347	105.4
x1 = 0.5632	–	–	–	83.62
x1 = 0.5656	0.000939	0.00113	0.0015	–
x1 = 0.625	–	–	–	57.48
x1 = 0.6255	0.000466	0.000604	0.0008	–
x1 = 0.75	0.000559	–	0.000826	26.15
x1 = 0.753	0.000559	0.000667	0.000826	–
x1 = 0.8333	0.00087	–	0.00115	13.46
x1 = 0.8334	0.00087	0.00102	0.00115	–
x1 = 0.9094	0.00101	0.00111	0.0012	–
x1 = 0.95	0.000949	0.00104	0.00112	–
x1 = 0.975	0.000789	0.000841	0.000928	–
x1 = 1	0.000382	0.000423	0.000444	4.91
